Experimental data: US7084301B2 (Ranbaxy Laboratories Limited, priority 2003, dated 2006)

Legend:
human α1A-adrenoceptors = biological target: T1, human α1A-adrenoceptors (Homo sapiens, UniProt P35348); test: Radioligand-receptor binding assay, human recombinant α1A-adrenoceptor, [3H]prazosin; settings: human recombinant receptors in CHO cells, mean ± SEM; read-out: pKi α1A (converted)
T1 sequence (P35348 1-466): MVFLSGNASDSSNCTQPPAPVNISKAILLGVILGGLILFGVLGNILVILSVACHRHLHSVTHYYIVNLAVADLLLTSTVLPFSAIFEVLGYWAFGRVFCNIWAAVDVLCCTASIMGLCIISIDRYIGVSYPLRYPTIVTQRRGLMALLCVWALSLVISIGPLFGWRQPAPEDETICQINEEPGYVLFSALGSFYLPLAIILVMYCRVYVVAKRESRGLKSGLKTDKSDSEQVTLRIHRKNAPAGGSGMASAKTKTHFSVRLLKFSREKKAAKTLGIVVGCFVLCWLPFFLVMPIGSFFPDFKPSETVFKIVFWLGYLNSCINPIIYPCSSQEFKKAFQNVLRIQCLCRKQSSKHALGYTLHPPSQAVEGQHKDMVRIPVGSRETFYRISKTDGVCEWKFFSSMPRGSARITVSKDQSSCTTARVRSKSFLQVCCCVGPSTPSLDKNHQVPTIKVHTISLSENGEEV
Protocol: (§1) Chinese hamster ovary (CHO) cells which had been stably transfected with human α1A, α1B, or α1D-adrenoceptors (Keffel et al., Biochem. Biophys. Res. Commun., 2000, 272, 906–11) were cultured in an atmosphere of 5% CO2/95% air at 37° C. in F-12 HAM medium supplemented with 10% heat-inactivated fetal calf serum, 1 mM glutamine, 100 U/ml penicillin and 0.1 mg/ml streptomycin. Selection pressure was maintained by regular addition of geneticin to the culture medium.
(§2) Competitive radioligand binding to the cloned subtypes of […] was performed using [^3H]prazosin as the radioligand as described by Michel et al, Br. J. Pharmacol., 98, 883–889 (1989) with minor modifications. Experiments were performed in binding buffer consisting of 50 mM Tris, 10 mM MgCl2 and 0.5 mM EDTA at pH 7.5 in a total assay volume of 1000 μl. The protein content typically was 40–60 μg/assay. The mixtures were incubated at 25° C. for 45 minutes. Incubations were terminated by rapid vacuum filtration over GF/C filters followed by two washes of the filters each with 10 ml ice-cold incubation buffer. Non-specific binding was defined as binding in the presence of 10 μM phentolamine.
(§3) The IC50 & Kd were estimated by using the non-linear curve fitting program using G Pad Prism software. The value of inhibition constant Ki was calculated from competitive binding studies by using Cheng & Prusoff equation [Cheng & Prusoff, Biochem. Pharmacol., 22, 3099–3108 (1973)], Ki=IC50/(1+L/Kd), where L is the concentration of [^3H] prazosin used in the particular experiment. Kd of [^3H] prazosin was determined from saturation binding studies. The values were tabulated as mean±SEM of pKi values, where pKi is the −log of Ki value.

human α1B-adrenoceptors = biological target: T2, human α1B-adrenoceptors (Homo sapiens, UniProt P35368); test: Radioligand-receptor binding assay, human recombinant α1B-adrenoceptor, [3H]prazosin
T2 sequence (P35368 1-520): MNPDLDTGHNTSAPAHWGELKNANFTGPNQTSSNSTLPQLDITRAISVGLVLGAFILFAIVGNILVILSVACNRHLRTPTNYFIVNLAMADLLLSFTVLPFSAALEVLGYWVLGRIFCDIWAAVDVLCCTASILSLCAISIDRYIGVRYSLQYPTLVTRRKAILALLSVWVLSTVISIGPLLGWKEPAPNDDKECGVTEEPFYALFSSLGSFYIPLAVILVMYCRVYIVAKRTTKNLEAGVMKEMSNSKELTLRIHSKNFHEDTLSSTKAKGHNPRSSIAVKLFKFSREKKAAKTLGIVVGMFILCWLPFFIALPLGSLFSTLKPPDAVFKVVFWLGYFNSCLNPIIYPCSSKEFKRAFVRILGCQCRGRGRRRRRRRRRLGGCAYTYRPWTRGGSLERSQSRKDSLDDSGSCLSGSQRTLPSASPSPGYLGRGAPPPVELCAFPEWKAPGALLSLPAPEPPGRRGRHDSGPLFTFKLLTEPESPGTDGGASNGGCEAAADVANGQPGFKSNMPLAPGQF
Protocol: as §1, §2, §3

human α1D-adrenoceptors = biological target: T3, human α1D-adrenoceptors (Homo sapiens, UniProt P25100); test: Radioligand-receptor binding assay, human recombinant α1D-adrenoceptor, [3H]prazosin
T3 sequence (P25100 1-572): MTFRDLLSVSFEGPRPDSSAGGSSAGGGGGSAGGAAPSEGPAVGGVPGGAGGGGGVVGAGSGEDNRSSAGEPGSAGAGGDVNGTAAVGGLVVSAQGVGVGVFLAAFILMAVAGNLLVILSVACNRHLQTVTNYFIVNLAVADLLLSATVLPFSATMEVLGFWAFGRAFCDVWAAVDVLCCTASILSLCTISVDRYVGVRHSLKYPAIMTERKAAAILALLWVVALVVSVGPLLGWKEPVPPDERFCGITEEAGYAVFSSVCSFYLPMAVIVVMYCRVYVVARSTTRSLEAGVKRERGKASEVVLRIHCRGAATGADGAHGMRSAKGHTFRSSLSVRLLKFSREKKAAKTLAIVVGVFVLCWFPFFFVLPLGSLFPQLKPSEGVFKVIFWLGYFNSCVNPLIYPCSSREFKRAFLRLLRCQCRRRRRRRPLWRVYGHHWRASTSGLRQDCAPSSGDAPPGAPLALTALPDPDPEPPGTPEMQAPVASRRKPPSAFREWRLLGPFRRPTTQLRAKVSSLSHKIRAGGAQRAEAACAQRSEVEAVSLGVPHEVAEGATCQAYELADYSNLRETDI
Protocol: as §1, §2, §3

Row | Compound | Ki (human α1A-adrenoceptors) | Ki (human α1B-adrenoceptors) | Ki (human α1D-adrenoceptors)
1 | CCOc1ccccc1OCCNC(C)Cc1ccc(O)c(S(N)(=O)=O)c1 (racemic) [Racemate] | 0.0832 nM | 1.1 nM | 0.214 nM
2 | CCOc1ccccc1OCCN[C@@H](C)Cc1ccc(O)c(S(N)(=O)=O)c1 [(S)-isomer] | 2.24 nM | 21.9 nM | 7.94 nM
